# Reference: ChEMBL document CHEMBL3507680, “University of Dundee, Gates Library screen for HepG2 cell viability”
# Assay: Human HepG2 cell viability assay in 384 well format
# Format: toxicity, cell-based
# Design: dose 125 nL, time 70.5 hour; cytotoxicity at 70.5 h: concentration not given beside the values
# Conditions: HepG2 cells, read-out: Inhibition
row,SMILES,cytotoxicity at 70.5 h [%]
1,CC1c2ncc(COCC3CC3)n2CCN1C(=O)c1ccn(C)n1 (centres undefined),-9.47
2,Cn1cccc1C(O)CNC(=O)COc1ccccc1F (centres undefined),-8.88
3,Cc1ccsc1C(=O)NCc1cccnc1N(C)CCc1ccccn1,-7.98
4,Cc1cnn(CC2CCCN2C(=O)c2cccc3c2OCO3)c1 (centres undefined),-5.23
5,CC(C)=CCN1CCN(Cc2ncc[nH]2)[C@H]2CS(=O)(=O)C[C@H]21,-4.55
6,O=C1CC[C@H]2CN(c3ncccc3F)CC[C@H]2N1CCc1ccccc1,17.3
7,O=C(Cc1cccs1)N1C[C@@H]2COC[C@]2(COCc2cccnc2)C1,-5.53
8,COCCN1CCO[C@@H]2CN(C(=O)Cc3ccc(F)cc3)CC[C@@H]2C1,4.68
9,CN1CCN(C(=O)c2cccs2)Cc2ccccc21,-0.544
10,Cc1cc(C)n(CC2CCCN2C(=O)c2ccc3ccccc3n2)n1 (centres undefined),-10.7
11,CCC(C)Oc1cc(C(=O)Nc2nc(C)ns2)ccn1 (centres undefined),-0.392
12,CC[C@H]1N(Cc2ccco2)CCC[C@]12CCC(=O)N2C,-15.5
13,COCCN1C(=O)C2(CCC(C(=O)Nc3ccc(C)cc3)CC2)N=C1C (centres undefined),10.5
14,Cc1ccnc(N2CCN(C[C@]3(O)CCCN4CCCC[C@@H]43)CC2)c1,1.52
15,Cc1nnc(NC(=O)NCCN(C(=O)OC(C)(C)C)C2CC2)s1,-4.34
16,CC1CCC(NS(=O)(=O)CC(=O)Nc2ccccc2N2CCCC2)CC1 (centres undefined),-1.66
17,Cc1cc(=O)n2nc(Oc3cccc(I)c3)sc2n1,-20.9
18,Cc1nc(C)n(CC2CCCN2Cc2nc(-c3ccsc3)no2)n1 (centres undefined),12.8
19,CCC(CC)(CNC(C)=O)NC(C)c1ccccc1 (centres undefined),3
20,CC1=NN(c2ccc(C(=O)N3CCCC(n4ccnc4)C3)cc2)CC1 (centres undefined),-17.1
21,Cc1nc(CN(C)C2CCN(Cc3ccc4ccccc4n3)C2)no1 (centres undefined),20.5
22,CN1CCCN(C(=O)c2cnsn2)c2cc(F)ccc21,25.1

row,SMILES,cytotoxicity at 70.5 h [%]
1,O=C(c1ccno1)N1CCC2(CC1)C(=O)N(CC1CC1)c1ccccc12,-17.3
2,Cc1ccc(-c2cc(-c3nc(CN4CCN(C)CC4)no3)[nH]n2)s1,-10.5
3,CC(C)Oc1ncnc2c1CCN(C(=O)c1cccn1C)CC2,7.42
4,Cc1nc[nH]c1-c1nccn1-c1cccc(CN2CCCC2)c1,13
5,CC(C)(O)CCc1cccc(C(=O)N2Cc3cnn(CCO)c3C2)c1,-17.1
6,O=C(NCCO)c1ccn(-c2ccc3ccccn23)n1,25.4
7,O=C(CNc1cc2c(cc1Cl)OCCCO2)NCc1ccc(F)cc1,-4.01
8,CC(Cn1cccn1)NCc1csc(Cc2ccccc2)n1 (centres undefined),0.563
9,Cc1nc2c(c(N3CCCOCC3)n1)CCN(C(=O)N1CCCC1)CC2,-4.22
10,CN(CCc1ccccn1)C(=O)c1cccs1,-2.46
11,CCC(=O)Nc1ccc(F)cc1OC,14.6
12,CN(C)CC(=O)N1CCC2(CCc3ccc(-c4ccncc4)cc32)CC1,3.66
13,O=C(c1cocn1)N1C[C@@H]2CN(Cc3ccco3)CCO[C@@H]2C1,-9.1
14,CCN1CCN(C(=O)COCc2cccc(OC)c2)CC1,-6.27
15,COc1cc2nc(NCCN3CCNC3=O)cc(C)c2cc1OC,-0.54
16,O=C(NCc1ccc(F)cc1)N1CCC(C2OCCO2)CC1,-10
17,CNCC[C@H]1CC(C)(C)Oc2ccc(OCC3CC3)cc21,7.09
18,NC(=O)C1CCN(C(=O)NCc2ccc(-c3ccn[nH]3)cc2)CC1,-6.11
19,Cc1cnn(C2CCCN(C(=O)c3ccc(Cn4ccnc4)cc3)C2)c1 (centres undefined),17.4
20,CNc1ncccc1CN1CCN(C)CC(C(=O)N(C)C)C1 (centres undefined),14.6
21,COc1ccc(CCNC(=O)CC(NC(N)=O)c2ccccc2)cc1 (centres undefined),14.7
22,Cc1ccc(C(=O)N2CC[C@@H]3CN(C4CCOCC4)CCO[C@@H]3C2)o1,-7.78
